Data as given in patent US5854029A, “Method for preparing antihypertensive agent” (Calpis Co., Ltd., priority 1996, dated 1998).
Peptide text beside a SMILES is read from it.

Tests used:
[1] = system: WKY rats showing normal blood pressure; experiment: One-month continuous oral administration to WKY rats (safety); assay type: in vivo, rat; conditions: 10 mg/kg body weight/day continuously for one month
From the text: Foods fermented with Lactobacillus bacteria have been eaten by human beings for a long time, and it is therefore assumed that Tyr-Pro contained in the antihypertensive agent of the present invention has no problem in safety.

[2] = system: spontaneously hypertensive rats (SHR); conditions: J. Dairy Sci. 78:1253-1257; cited from earlier work
[3] = target: Angiotensin converting enzyme (ACE) (Homo sapiens, UniProt P12821); conditions: J. Dairy Sci. 78:777-783; cited from earlier work
Angiotensin converting enzyme (ACE), sequence (P12821 30-1306, species assumed): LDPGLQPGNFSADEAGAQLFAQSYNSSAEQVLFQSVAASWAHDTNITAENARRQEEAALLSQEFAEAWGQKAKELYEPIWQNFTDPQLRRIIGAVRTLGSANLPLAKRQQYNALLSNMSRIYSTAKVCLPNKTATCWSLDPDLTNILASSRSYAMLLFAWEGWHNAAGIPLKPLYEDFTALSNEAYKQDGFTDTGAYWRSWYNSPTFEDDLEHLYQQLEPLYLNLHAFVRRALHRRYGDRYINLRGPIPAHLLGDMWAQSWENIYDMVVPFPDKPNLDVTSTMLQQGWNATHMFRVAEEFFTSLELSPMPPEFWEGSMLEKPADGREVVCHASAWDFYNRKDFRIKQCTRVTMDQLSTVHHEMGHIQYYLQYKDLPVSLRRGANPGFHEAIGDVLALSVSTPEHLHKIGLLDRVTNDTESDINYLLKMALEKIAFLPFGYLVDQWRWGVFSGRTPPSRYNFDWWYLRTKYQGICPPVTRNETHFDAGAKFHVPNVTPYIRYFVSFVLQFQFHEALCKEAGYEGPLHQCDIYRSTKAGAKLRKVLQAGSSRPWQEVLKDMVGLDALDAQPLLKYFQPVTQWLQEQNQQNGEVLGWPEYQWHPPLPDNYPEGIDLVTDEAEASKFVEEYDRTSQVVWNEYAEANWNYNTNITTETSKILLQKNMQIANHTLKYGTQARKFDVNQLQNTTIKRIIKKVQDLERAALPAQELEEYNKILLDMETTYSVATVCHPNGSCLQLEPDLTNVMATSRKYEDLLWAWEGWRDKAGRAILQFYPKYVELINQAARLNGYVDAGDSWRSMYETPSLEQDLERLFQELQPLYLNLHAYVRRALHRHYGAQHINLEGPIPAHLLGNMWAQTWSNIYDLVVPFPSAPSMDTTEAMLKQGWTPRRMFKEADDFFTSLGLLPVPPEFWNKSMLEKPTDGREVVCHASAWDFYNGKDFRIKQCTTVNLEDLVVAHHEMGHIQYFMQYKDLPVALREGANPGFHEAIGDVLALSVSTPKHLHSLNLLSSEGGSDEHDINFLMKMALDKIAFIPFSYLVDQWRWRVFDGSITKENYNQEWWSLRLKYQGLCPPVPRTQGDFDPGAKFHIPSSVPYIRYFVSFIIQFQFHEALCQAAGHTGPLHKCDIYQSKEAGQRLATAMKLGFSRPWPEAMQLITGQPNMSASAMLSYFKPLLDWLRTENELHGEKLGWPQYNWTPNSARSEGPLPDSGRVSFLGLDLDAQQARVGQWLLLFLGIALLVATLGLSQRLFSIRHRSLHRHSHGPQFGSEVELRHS

Compound | Abnormality in behavior, appearance, blood pressure and autopsy [1] | Antihypertensive effect in SHR (result in words) [2] | ACE inhibiting activity (result in words) [3]
N[C@@H](Cc1ccc(O)cc1)C(=O)N1CCC[C@H]1C(=O)O [Tyr-Pro] (H-Tyr-Pro-OH) | no abnormality was found | – | –
Ile-Pro-Pro | – | strong antihypertensive effect | strong ACE inhibiting activity
Val-Pro-Pro | – | strong antihypertensive effect | strong ACE inhibiting activity
